{
  "source": "patent US11878018B1",
  "about": "“Phosphorylation of Syntaxin 17 by TBK1 controls autophagy initiation” (priority 2018, dated 2024)",
  "key": {"[1]": {"tested_on": "Stx17 phosphorylation (Stx17^pS02) by TBK1", "test": "Western blot of Stx17 phosphorylation at Ser-202 in HeLa cells", "format": "cell-based, human"}, "[2]": {"tested_on": "LDH sequestration in autophagosomes, HeLa cells", "test": "LDH (lactate dehydrogenase) sequestration assay", "format": "cell-based, human", "conditions": "WT HeLa cells, EBSS 2 h in presence of bafilomycin A1; 3-methyladenine 10 mM as positive control (FIG. 7N,O)"}},
  "data": [
    {"smiles": "CC(=O)N[C@H]1C(O)O[C@H](CO)[C@@H](O)[C@@H]1O[C@H](C)C(=O)N[C@@H](C)C(=O)N[C@H](CCC(=O)O)C(N)=O", "note": "(mixture of isomers) [MDP, muramyl-dipeptide]", "values": [
      {"measurement": "Stx17^pS02 band response to agonists of TBK1", "setting": "[1]; HeLa cells, Western blot (FIG. 8H), band also detectable in resting cells", "result": "responsive"}
    ]},
    {"smiles": "Cn1cnc(N)c2ncnc1-2", "note": "[3MA, 3-methyladenine]", "values": [
      {"measurement": "LDH (bulk autophagy cargo) sequestration in autophagosomes", "setting": "[2]", "result": "reduction in cargo sequestration"}
    ]},
    {"smiles": "O=C(NCCCNc1nc(Nc2cccc(NC(=O)N3CCCC3)c2)ncc1I)c1cccs1", "note": "[BX795]", "values": [
      {"measurement": "Stx17 phosphorylation (Stx17^pS02)", "setting": "[1]; cells stimulated with LPS, HeLa WT or TBK1 KO cells, Western blot (FIG. 8I)", "result": "inhibited Stx17 phosphorylation"},
      {"measurement": "baseline Stx17^pS02 levels", "setting": "[1]; unstimulated cells, Western blot (FIG. 8I)", "result": "reduced the low baseline levels"}
    ]}
  ]
}
